From patent US6586441B2, “Adenosine receptor ligands and their use in the treatment of disease” (Hoffman-La Roche Inc., priority 2000, dated 2003) come the findings set out here.

Where a name gives a salt, the structure may show the parent alone.

T1 sequence (P29274 whole entry): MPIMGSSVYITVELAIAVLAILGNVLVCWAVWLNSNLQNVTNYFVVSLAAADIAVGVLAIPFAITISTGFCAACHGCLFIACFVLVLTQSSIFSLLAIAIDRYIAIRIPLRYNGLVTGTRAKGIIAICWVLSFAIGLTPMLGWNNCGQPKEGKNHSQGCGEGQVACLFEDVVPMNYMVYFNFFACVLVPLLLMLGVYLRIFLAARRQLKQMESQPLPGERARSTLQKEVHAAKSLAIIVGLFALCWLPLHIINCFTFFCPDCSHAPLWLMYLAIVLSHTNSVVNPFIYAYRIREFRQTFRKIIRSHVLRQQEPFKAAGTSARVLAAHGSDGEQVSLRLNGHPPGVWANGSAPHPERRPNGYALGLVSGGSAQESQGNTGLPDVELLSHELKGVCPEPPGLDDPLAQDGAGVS

One test has as its target T1, human adenosine A2A receptor (Homo sapiens, UniProt P29274).
T1 construct: expressed in transfected cells; host or cells: CHO cells, semliki forest virus expression system; membrane preparation
As to the kind of experiment: Human adenosine A2A receptor [3H]-SCH-58261 binding assay. As to conditions: human A2a receptor, membranes of CHO cells, [3H]-SCH-58261. On the procedure: The gene encoding human adenosine A2A receptor was recombinantly introduced and expressed in chinese hamster ovary (CHO) cells using the semliki forest virus expression system. Cells were harvested, washed twice by centrifugation, homogenised and again washed by centrifugation. The final washed membrane pellet was suspended in a Tris (50 mM) buffer containing 120 mM NaCl, 5 mM KCl, 2 mM CaCl2 and 10 mM MgCl2 (pH 7.4) (buffer A). The [^3H]-SCH-58261 (Dionisotti et al., 1997, Br. J. Pharmacol. 121, 353; 1 nM) binding assay was carried out in 96-well plates in the presence of 2.5 μg of membrane protein, 0.5 mg of Ysi-poly-1-lysine SPA beads and 0.1 U adenosine deaminase in a final volume of 200 μl of buffer A. Non-specific binding was defined using xanthine amine congener (XAC; […]). Compounds were tested at 10 concentrations from 10 μM-0.3 nM. All assays were conducted in duplicate and repeated at least two times. Assay plates were incubated for 1 hour at room temperature before centrifugation and then bound ligand determined using a Packard Topcount scintillation counter. IC50 values were calculated using a non-linear curve fitting program and Ki values calculated using the Cheng-Prussoff equation.
As for `N#Cc1c(SCCc2ccccn2)nc(N)nc1-c1ccc(Cl)o1` [Example 478], the “pKi (affinity to the human A2a receptor)” value is on record as 8.96.

With `Cc1ccnc(CNc2nc(N)nc(C3=CCCO3)c2C#N)c1` [Example 464, 2-Amino-4-(4,5-dihydro-furan-2-yl)-6-[(4-methyl-pyridin-2-ylmethyl)-amino]-pyrimidine-5-carbonitrile], the “pKi (affinity to the human A2a receptor)” value came to 8.12. As to `Cc1cnc(COc2nc(N)nc(-c3ccc(C)o3)c2C#N)c(C)c1` [Example 466, 2-Amino-4-(3,5-dimethyl-pyridin-2-ylmethoxy)-6-(5-methyl-furan-2-yl)-pyrimidine-5′-carbonitrile], the “pKi (affinity to the human A2a receptor)” value was determined as 8.97.

Staying with this test, now noted: human A2a receptor, membranes of CHO cells, [3H]-SCH-58261; read-out: pKi (affinity to the human A2a receptor) (converted).
Consider `CSc1nc(N)nc(-c2ccc3c(c2)OCCO3)c1C#N` [Example 23, 2-Amino-4-(2,3-dihydro-benzo[1,4]dioxin-6-yl)-6-methylsulfanyl-pyrimidine-5-carbonitrile], for which the Ki was 9.12 nM. The same measure, in the same setting: in the case of `Nc1nc(OCCCc2ccccc2)c(Cl)c(-c2ccco2)n1` [Example 321, 5-Chloro-4-furan-2-yl-6-(3-phenyl-propoxy)-pyrimidin-2-yl-amine] it was 2.82 nM; in that of `N#Cc1c(OCCCc2ccccc2)nc(N)nc1-c1ccco1` [Example 54, 2-Amino-4-furan-2-yl-6-(3-phenyl-propoxy)-pyrimidine-5-carbonitrile], 7.41 nM; in that of `N#Cc1c(NCc2ccccc2N)nc(N)nc1-c1ccco1` [Example 304, 2-Amino-4-(2-amino-benzylamino)-6-furan-2-yl-pyrimidine-5-carbonitrile], 3.55 nM. On the same count and under the same terms, under `Nc1nc(SCCc2ccccn2)c(Br)c(-c2ccco2)n1` [Example 353, 5-Bromo-4-furan-2-yl-6-(2-pyridin-2-yl-ethylsulfanyl)-pyrimidin-2-yl-amine] stands 3.8 nM; under `Cc1ccc(-c2nc(N)nc(OCc3ccccn3)c2C#N)o1` [Example 247, 2-Amino-4-(5-methyl-furan-2-yl)-6-(pyridin-2-ylmethoxy)-pyrimidine-5-carbonitrile], 2.14 nM; under `Cc1cccc(CNc2nc(N)nc(-c3ccco3)c2C#N)c1` [Example 289, 2-Amino-4-furan-2-yl-6-(3-methyl-benzylamino)-pyrimidine-5-carbonitrile], 3.72 nM.

With `N#Cc1c(SCCc2ccccn2)cc(N)nc1-c1ccco1` [Example 356, 6-Amino-2-furan-2-yl-4-(2-pyridin-2-yl-ethylsulfanyl)-nicotinonitrile], the Ki is 0.912 nM.

As to `N#Cc1coc(-c2nc(N)nc(SCCc3ccccn3)c2C#N)c1` [Example 535, 2-Amino-4-(4-cyano-furan-2-yl)-6-(2-pyridin-2-yl-ethylsulfanyl)-pyrimidine-5-carbonitrile], the Ki is 3.98 nM.

For `Cc1ccc(COc2nc(N)nc(-c3ccco3)c2C#N)nc1` [Example 362, 2-Amino-4-furan-2-yl-6-(5-methyl-pyridin-2-yl-methoxy)-pyrimidine-5-carbonitrile], the Ki was 2.63 nM.

On to `Cc1cccnc1CNc1nc(N)nc(-c2ccco2)c1C#N` [Example 368, 2-Amino-4-furan-2-yl-6-[(3-methyl-pyridin-2-yl-methyl)-amino]-pyrimidine-5-carbonitrile], for which the Ki was 1.86 nM. The same measure, in the same setting: under `Cc1cccnc1COc1nc(N)nc(-c2ccc(Cl)o2)c1C#N` [Example 530, 2-Amino-4-(5-chloro-furan-2-yl)-6-(3-methyl-pyridin-2-yl-methoxy)-pyrimidine-5-carbonitrile] stands 1.74 nM; under `Nc1nc(SCCc2ccccn2)c(Cl)c(-c2ccco2)n1` [Example 354, 5-Chloro-4-furan-2-yl-6-(2-pyridin-2-yl-ethylsulfanyl)-pyrimidin-2-yl-amine], 4.9 nM; under `N#Cc1c(NCc2ccc3ccccc3n2)nc(N)nc1-c1ccco1` [Example 297, 2-Amino-4-furan-2-yl-6-[(quinolin-2-ylmethyl)-amino]-pyrimidine-5-carbonitrile], 1.38 nM. Still for that read-out and setting: under `N#Cc1c(OCc2ccccn2)cc(N)nc1-c1ccco1` [Example 355, 6-Amino-2-furan-2-yl-4-(pyridin-2-yl-methoxy)-nicotinonitrile] stands 3.02 nM. On the same count and under the same terms, under `C=Cc1ccc(CNc2nc(N)nc(-c3ccco3)c2C#N)cc1` [Example 374, 2-Amino-4-furan-2-yl-6-(4-vinyl-benzylamino)-pyrimidine-5-carbonitrile] stands 9.33 nM; under `Cc1ccc(COc2nc(N)nc(-c3ccc(Cl)o3)c2C#N)nc1` [Example 531, 2-Amino-4-(5-chloro-furan-2-yl)-6-(5-methyl-pyridin-2-yl-methoxy)-pyrimidine-5-carbonitrile], 5.62 nM. Take `N#Cc1c(SCc2ccccc2)nc(N)nc1-c1ccco1` [Example 52, 2-Amino-4-benzylsulfanyl-6-furan-2-yl-pyrimidine-5-carbonitrile]: the Ki was 3.98 nM. Same read-out and setting: in the case of `N#Cc1c(NCc2ccc(C(F)(F)F)cc2)cc(N)nc1-c1ccco1` [Example 357] it was 9.12 nM; in that of `Nc1nc(NCCCc2ccccc2)c(Br)c(-c2ccco2)n1` [Example 208, 5-Bromo-6-furan-2-yl-N4-(3-phenyl-propyl)-pyrimidine-2,4-diamine hydrochloride], 9.12 nM. Still for that read-out and setting: in the case of `N#Cc1c(OCc2ccccc2)nc(N)nc1-c1ccco1` [Example 47, 2-Amino-4-benzyloxy-6-furan-2-yl-pyrimidine-5-carbonitrile] it was 3.8 nM.

Consider `CN(C)c1ccc(CNc2nc(N)nc(-c3ccco3)c2C#N)cc1` [Example 312, 2-Amino-4-(4-dimethylamino-benzylamino)-6-furan-2-yl-pyrimidine-5-carbonitrile], for which the Ki is 9.77 nM. Still for that read-out and setting: under `N#Cc1c(OCCc2ccccn2)nc(N)nc1-c1cccc(F)c1` [Example 405, 2-Amino-4-(3-fluoro-phenyl)-6-(2-pyridin-2-yl-ethoxy)-pyrimidine-5-carbonitrile] stands 7.41 nM; under `N#Cc1c(NCCNc2ccccn2)nc(N)nc1-c1ccco1` [Example 330, 2-Amino-4-furan-2-yl-6-[2-(pyridin-2-ylamino)-ethylamino]-pyrimidine-5-carbonitrile], 7.94 nM; under `Cc1ccnc(CNc2nc(N)nc(-c3ccco3)c2C#N)c1` [Example 348, 2-Amino-4-furan-2-yl-6-[(4-methyl-pyridin-2-ylmethyl)-amino]-pyrimidine-5-carbonitrile], 2.09 nM. On the same count and under the same terms, under `Nc1nc(OCCCc2ccccc2)c(Br)c(-c2ccco2)n1` [Example 230, 5-Bromo-4-furan-2-yl-6-(3-phenyl-propoxy)-pyrimidin-2-yl-amine] stands 1.66 nM; under `N#Cc1c(NCc2ccc3ccccc3n2)cc(N)nc1-c1ccco1` [Example 364, 6-Amino-2-furan-2-yl-4-[(quinolin-2-ylmethyl)-amino]-nicotinonitrile], 3.89 nM.

In the case of `N#Cc1c(NCC2CCc3ccccc3N2)nc(N)nc1-c1ccco1` (racemic) [Example 299, (RS)-2-Amino-4-furan-2-yl-6-[(1,2,3,4-tetrahydro-quinolin-2-ylmethyl)-amino]-pyrimidine-5-carbonitrile], the Ki was 6.31 nM. On the same count and under the same terms, in the case of `COc1ccc(CCNc2nc(N)nc(-c3ccco3)c2C#N)cc1` [Example 144, 2-Amino-4-furan-2-yl-6-[2-(4-methoxy-phenyl)-ethylamino]-pyrimidine-5-carbonitrile] it was 2.82 nM; in that of `N#Cc1c(OCc2cccnc2)nc(N)nc1-c1ccco1` [Example 219, 2-Amino-4-furan-2-yl-6-(pyridin-3-ylmethoxy)-pyrimidine-5-carbonitrile], 5.89 nM; in that of `N#Cc1c(-c2ccco2)nc(N)nc1N1CCCCC1` [Example 41, 2-Amino-4-furan-2-yl-6-piperidin-1-yl-pyrimidine-5-carbonitrile], 8.51 nM. Still for that read-out and setting: in the case of `N#Cc1c(OCc2ccccn2)nc(N)nc1-c1cccs1` [Example 206, 2-Amino-4-(pyridin-2-ylmethoxy)-6-thiophen-2-yl-pyrimidine-5-carbonitrile] it was 9.55 nM; in that of `N#Cc1c(OCCc2ccccn2)cc(N)nc1-c1ccco1` [Example 384, 6-Amino-2-furan-2-yl-4-(2-pyridin-2-yl-ethoxy)-nicotinonitrile], 3.02 nM; in that of `Nc1nc(OCc2ccccn2)c(Br)c(-c2ccco2)n1` [Example 168, 5-Bromo-4-furan-2-yl-6-(pyridin-2-ylmethoxy)-pyrimidin-2-yl-amine], 9.33 nM. Still for that read-out and setting: under `Nc1nc(OCc2ccccc2)c([N+](=O)[O-])c(-c2ccco2)n1` [Example 286, 4-Benzyloxy-6-furan-2-yl-5-nitro-pyrimidin-2-yl-amine] stands 9.55 nM; under `Cc1coc(-c2nc(N)nc(OCCc3ccccn3)c2C#N)c1` [Example 423, 2-Amino-4-(4-methyl-furan-2-yl)-6-(2-pyridin-2-yl-ethoxy)-pyrimidine-5-carbonitrile], 3.02 nM; under `Nc1nc(OCCCc2ccccc2)c(I)c(-c2ccco2)n1` [Example 267, 4-Furan-2-yl-5-iodo-6-(3-phenyl-propoxy)-pyrimidin-2-yl-amine], 4.37 nM.
